Data reported in patent publication US20250368646A1, “TRICYCLIC FUSED WRN INHIBITORS” (Nimbus Wadjet, Inc., priority 2024, published 2025).

Experiments:
[1] = target: T1, human Werner helicase (WRN-BV08, amino acids 517-1235 with L1074F point mutation) (Homo sapiens, UniProt Q14191, L1074F); experiment: ADP-Glo WRN helicase ATPase inhibition assay; assay type: biochemical; conditions: 0.15 nM WRN, 5 μM ATP, 0.1 nM DNA duplex; 15 minutes preincubation, 60 minutes at 25° C.; read-out: ADP-Glo_hWRN_IC50
T1 construct: [pFastBac1-WRN-(517-1235 L1074F)-TEV-8His]; 8xHis (C, cleaved yes); TEV cleavage site (ENLYFQG) (C); made in house; host or cells: Sf9 insect cells (baculovirus, pFastBac)
From the text: Bovine skin gelatin (BSG), dimethyl sulfoxide (DMSO), Pluronic F-127 and tris(2-carboxyethyl)phosphine hydrochloride solution (TCEP) were purchased from Sigma-Aldrich (St. Louis, MO) at the highest level of purity possible. Bicine buffer solution was purchased from Alfa Aesar (Tewksbury, MA) and compound NSC-617145 was purchased from Tocris (Minneapolis, MN). DNA duplex was synthesized at BGI (Shenzhen, China) and was composed of strand 1 with the sequence 5′-[…]-3′ (SEQ ID NO.: 1) and strand 2 with the sequence 5′-[…]-3′ (SEQ ID NO.: 2). DNA strands were annealed by heating to 95° C. for 5 minutes followed by slow cooling to room temperature. Compounds in 100% DMSO (0.1 μl) were spotted into a 384-well white polystyrene Optiplate-384 (Perkin Elmer; Waltham, MA) assay plate using a LabCyte Echo 550 (Agilent; Santa Clara, CA). DMSO (0.1 μl) was added to columns 12, rows A-H and column 24, rows I-P for the maximum signal control. Compound NSC-617145 (0.1 μl) was added to columns 12, rows I-P and 24, rows A-H for the minimum signal control (100% inhibition). Compounds/DMSO were preincubated for 15 minutes at 25° C. with 5 μl 2×WRN (BV08), prepared as described below, in assay buffer containing 20 mM Bicine (pH=7.5), 1 mM MgCl2, 10 mM KCl, 0.1% Pluronic F-127, 0.005% BSG, 1 mM TCEP. The reaction was initiated by the addition of 5 μl 2× substrate mixture in assay buffer and incubated for 60 minutes at 25° C. The final concentrations of the assay components were 0.15 nM WRN, 5 μM ATP, and 0.1 nM DNA duplex. The final DMSO concentration was 1% and the reference compound concentration (NSC-617145) used for the minimal signal control was 20 μM. The reaction was stopped by the addition of the ADP-Glo Kit components (Promega; Madison, WI) as directed and the relative luminescence units (RLU) were read on an Envision 2104 (Perkin Elmer; Waltham, MA). % inhibition calculation:
Where RLU=relative luminescence units, sample=signal in sample well, and MIN and MAX are the respective minimum and maximum signal controls.
Four-Parameter IC50 Fit Equation:
Where top and bottom are normally allowed to float but may be fixed at 100 or 0 respectively in a 3-parameter fit. Y is the % inhibition and X is the compound concentration.
Molecular Biology and virus production. The DNA encoding human Werner helicase (Uniprot Q14191, amino acids 517-1235 with L1074F point mutation) was generated with codon-optimization for E. coli expression and subcloned into the pFastBac vector with a TEV cleavable 8×His tag (SEQ ID NO: 5) (WRN-BV08). The baculovirus from the expression plasmid WRN-BV08 was generated from transfection and amplification following the manufacturer's instructions.
Sf9 cells grown in SF900II media were infected with 1:200 WRN-BV08 P2 virus and incubated for protein expression for 72 h at 27° C. The WRN protein was purified using the following protocol. The cell pellets were thawed and resuspended in buffer A (50 mM Tris, pH 7.5, 500 mM NaCl, 1 mM TCEP, 10% Glycerol) supplemented with 0.5% CHAPS, 1 mM PMSF, […] Leupeptin, 1 μg/ml Pepstatin, and the Pierce Universal Nuclease and cocktail tablet. Cleared lysates were loaded onto a Ni Sepharose™ excel column and washed with buffer A and bound protein was eluted with buffer A supplemented with 300 mM imidazole. The eluted protein was dialyzed against buffer A and digested by His-tagged TEV (1:5 ratio) overnight at 4° C. ZnCl2 was added into the sample at final 15 μM before loading onto a second Ni Sepharose™ excel column. Untagged WRN protein was eluted from the column with buffer A supplemented with 20 mM imidazole, dialyzed overnight into buffer B (50 mM Tris, pH 7.5, 1 mM TCEP, 10% Glycerol) supplemented with 150 mM NaCl and loaded onto a Heparin column. Proteins were eluted with a step gradient of buffer B supplemented with 150 mM, 200 mM, 300 mM and 500 mM NaCl. […]

[2] = test system: p21 induction in HCT 116 cells; experiment: p21 induction in cells (in-cell western, p21/GAPDH ratio); assay type: cell-based; conditions: Homo sapiens; HCT 116 colon carcinoma cell line, 24 h compound incubation; percent activation vs internal reference WRN inhibitor; read-out: P21_EC50
Protocol: The colon carcinoma cell line HCT 116 was obtained from ATCC and cultured in growth medium consisting of Mccoy's 5A Medium (Gibco 16600108) supplemented with […] (Transgene FS201-02) and 100 units/mL penicillin-streptomycin (Gibco 15140122) and maintained at 37° C. under […]. On the day of seeding, 2,000 cells in 30 μL of culture media were plated per well to Poly-D-Lysine 384 Well Black Clear Plates (Biocoat 356663) and incubated overnight at 37° C. under 5% CO2. The following day, compounds were serially diluted in DMSO for a total of 11 test concentrations. The typical starting concentration of cpds was 10 μM with 2-fold dilutions. Next, 150 nL of diluted compound was added in duplicate to the assay plate, using an Echo 655 (Labcyte). The plate was centrifuged at 500 RPM for 1 min and then incubated at 37° C. under 5% CO2 for 24 h. After 24 h, medium was removed, and cells were fixed by adding 40 µL of 4% paraformaldehyde solution to each well and incubated for 20 min at room temperature. The plate was then washed 4 times with 100 μL per well of wash buffer (PBS with 0.1% Tween-20) using a microplate washer. Next, 30 μL of ice-cold methanol was added to each well and the plate was incubated at −20° C. for 10 min. The plate was washed 4 times with 100 μL per well of wash buffer by a microplate washer, then 30 μL per well of blocking buffer (Intercept PBS blocking buffer (LI-COR 927-70001) with 0.05% Tween-20) was added and the plate was incubated at room temperature with shaking for 2 h. Next, to each test well, 20 μL of primary antibody solution (p21 Waf1/CIP (12D1) Rabbit mAb (Cell Signaling Technologies 2947) diluted 1:1000 and GAPDH (D4C6R) Mouse mAb (Cell Signaling Technologies 97166) diluted 1:2000 in blocking buffer) was added and the plate was placed at 4° C., overnight. The following day, the plate was washed 5 times with 100 μL per well of wash buffer using a microplate washer for 5 min. 20 μL per well of secondary antibody (IRDye 680CW Goat anti-Mouse IgG (H+L) (LI-COR 926-68070) diluted 1: 2000 in Blocking Buffer and IRDye 800CW Goat anti-Rabbit IgG (H+L) (LI-COR 926-32211) diluted 1: 2000 in Blocking Buffer) was then added and the plate was stored for 2 h in the dark at room temperature with shaking. The plate was then washed 4 times with 100 μL per well of wash buffer again using a microplate washer. Finally, the p21 signal and the GAPDH signal were quantified using a LI-COR Odyssey CLx Imager machine reading at 800 nm and 700 nm, respectively. Each plate contained DMSO control (low control) and an internal reference WRN inhibitor (high control) respectively. For quantitation, the 800 nm/700 nm ratio was calculated for each well to give fold p21 induction and then percent activation for each compound well was calculated as follows (100×(ratio cpd well-ratio low control)/(ratio high control−ratio low control)). EC50 values for each compound were generated after non-linear regression curve fitting using commercially available software.

T1 sequence (Q14191 with tags, fused parts or gaps L1074F): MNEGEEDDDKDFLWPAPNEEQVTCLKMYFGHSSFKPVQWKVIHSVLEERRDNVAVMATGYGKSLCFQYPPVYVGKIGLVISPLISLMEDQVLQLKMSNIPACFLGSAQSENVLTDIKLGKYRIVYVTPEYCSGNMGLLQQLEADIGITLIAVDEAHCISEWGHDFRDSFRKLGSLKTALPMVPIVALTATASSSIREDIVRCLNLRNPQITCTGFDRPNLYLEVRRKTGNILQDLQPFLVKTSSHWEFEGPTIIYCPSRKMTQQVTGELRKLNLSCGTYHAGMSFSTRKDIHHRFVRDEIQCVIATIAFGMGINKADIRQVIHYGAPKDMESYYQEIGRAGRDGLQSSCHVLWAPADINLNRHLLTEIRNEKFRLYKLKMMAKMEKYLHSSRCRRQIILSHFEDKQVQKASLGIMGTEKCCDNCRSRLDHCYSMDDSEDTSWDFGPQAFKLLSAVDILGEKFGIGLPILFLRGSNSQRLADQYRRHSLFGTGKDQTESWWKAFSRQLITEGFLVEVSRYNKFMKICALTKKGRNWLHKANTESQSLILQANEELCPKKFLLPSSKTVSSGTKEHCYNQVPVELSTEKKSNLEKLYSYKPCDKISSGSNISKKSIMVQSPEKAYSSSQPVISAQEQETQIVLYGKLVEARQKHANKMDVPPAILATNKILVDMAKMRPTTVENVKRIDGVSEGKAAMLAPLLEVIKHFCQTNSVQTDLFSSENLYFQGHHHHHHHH

SMILES | IC50 [1] | EC50 [2]
COc1cc(-n2nc3c(=O)c(N4CCN(C(=O)c5ncnc(C)c5O)[C@H]5CC[C@@H]54)c4n(c3n2)[C@H](C(=O)NC23CC(C5CC5)(C2)C3)C[C@@H]4C)ccn1 (single isomer, unassigned) [Compound I-4] | 100 to 500 nM | > 5000 nM
COc1cc(-n2nc3c(=O)c(N4CCN(C(=O)c5ncnc(C)c5O)[C@H]5CC[C@@H]54)c4n(c3n2)[C@@H](C(=O)NC23CC(C5CC5)(C2)C3)C[C@@H]4C)ccn1 (single isomer, unassigned) [Compound I-1] | 5 to 50 nM | ≤ 500 nM
COc1cc(-n2nc3c(=O)c(N4CCN(C(=O)c5ncnc(C)c5O)[C@H]5CC[C@@H]54)c4n(c3n2)[C@H](C(=O)Nc2ccc(C(F)(F)F)cc2F)C[C@H]4C)ccn1 (single isomer, unassigned) [Compound I-16] | 100 to 500 nM | 500 to 2000 nM
COc1cc(-n2nc3c(=O)c(N4CCN(C(=O)c5ncnc(C)c5O)[C@H]5CC[C@@H]54)c4n(c3n2)[C@H](C(=O)Nc2ccc(C(F)(F)F)cc2F)C[C@@H]4C)ccn1 (single isomer, unassigned) [Compound I-6] | ≤ 5 nM | ≤ 500 nM
Cc1nc2c(=O)c(N3CCN(C(=O)c4ncnc(C)c4O)[C@H]4CC[C@@H]43)c3n(c2nc1C)[C@@H](C(=O)Nc1ccc2c(c1Cl)OC(F)(F)O2)C[C@H]3C [Compound I-26, (7R,9R)—N-(4-chloro-2,2-difluoro-2H-1,3-benzodioxol-5-yl)-6-[(1S,6S)-5-(5-hydroxy-6-methylpyrimidine-4-carbonyl)-2,5-diazabicyclo[4.2.0]octan-2-yl]-2,3,7-trimethyl-5-oxo-5H,7H,8H,9H-pyrazino[2,3-e]indolizine-9-carboxamide] | – | ≤ 500 nM
Cc1nc2c(=O)c(N3CCN(C(=O)c4ncnc(C)c4O)[C@H]4CC[C@@H]43)c3n(c2nc1C)[C@@H](C(=O)Nc1ccc(C(F)(F)F)cc1Cl)C[C@@H]3C (single isomer, unassigned) [Compound I-17] | ≤ 5 nM | ≤ 500 nM
COc1cc(-n2nc3c(=O)c(N4CCN(C(=O)c5ncnc(C)c5O)[C@H]5CC[C@@H]54)c4n(c3n2)[C@@H](C(=O)Nc2ccc(C(F)(F)F)cc2F)C[C@@H]4C)ccn1 (single isomer, unassigned) [Compound I-15] | ≤ 5 nM | ≤ 500 nM
Cc1nc2c(=O)c(N3CCN(C(=O)c4ncnc(C)c4O)[C@H]4CC[C@@H]43)c3n(c2nc1C)[C@H](C(=O)Nc1ccc(C(F)(F)F)cc1Cl)C[C@@H]3C (single isomer, unassigned) [Compound I-18] | ≤ 5 nM | ≤ 500 nM

More lines, now with the values ahead:

IC50 [1] | EC50 [2] | SMILES
> 500 nM | > 5000 nM | Cc1cnc2c(n1)c(=O)c(N1CCN(C(=O)c3ncnc(C)c3O)[C@H]3CC[C@@H]31)c1n2[C@@H](C(=O)Nc2ccc(C(F)(F)F)cc2Cl)C[C@@H]1C (single isomer, unassigned) [Compound I-12]
5 to 50 nM | ≤ 500 nM | COc1cc(-n2nc3c(=O)c(N4CCN(C(=O)c5ncnc(C)c5O)[C@H]5CC[C@@H]54)c4n(c3n2)[C@@H](C(=O)Nc2ccc(C(F)(F)F)cc2Cl)C[C@@H]4C)ccn1 (single isomer, unassigned) [Compound I-14]
≤ 5 nM | – | COc1cc(-n2nc3c(=O)c(N4CCN(C(=O)c5ncnc(C)c5O)[C@H]5CC[C@@H]54)c4n(c3n2)[C@H](C(=O)Nc2ccc(C(F)(F)F)cc2Cl)C[C@H]4C)ccn1 (single isomer, unassigned) [Compound I-13]
> 500 nM | > 5000 nM | Cc1ncnc(C(=O)N2CCN(c3c4n(c5nn(C6=CCOCC6)nc5c3=O)[C@H](C(=O)Nc3ccc(C(F)(F)F)cc3Cl)C[C@@H]4C)[C@H]3CC[C@@H]32)c1O (single isomer, unassigned) [Compound I-24]
5 to 50 nM | 500 to 2000 nM | Cc1ncnc(C(=O)N2CCN(c3c4n(c5nn(C6CC6)nc5c3=O)[C@@H](C(=O)Nc3ccc(C(F)(F)F)cc3Cl)C[C@@H]4C)[C@H]3CC[C@@H]32)c1O (relative stereo) [Compound I-28, (6R*,8R**)-N-[2-chloro-4-(trifluoromethyl)phenyl]-2-cyclopropyl-5-[(1S,6S)-5-(5-hydroxy-6-methylpyrimidine-4-carbonyl)-2,5-diazabicyclo[4.2.0]octan-2-yl]-6-methyl-4-oxo-2H,4H,6H,7H,8H-[1,2,3]triazolo[4,5-e]indolizine-8-carboxamide]
> 500 nM | > 5000 nM | Cc1ncnc(C(=O)N2CCN(c3c4n(c5nn(C6=CCOCC6)nc5c3=O)[C@H](C(=O)Nc3ccc(C(F)(F)F)cc3Cl)C[C@H]4C)[C@H]3CC[C@@H]32)c1O (single isomer, unassigned) [Compound I-25]
100 to 500 nM | > 5000 nM | Cc1cnc2c(n1)c(=O)c(N1CCN(C(=O)c3ncnc(C)c3O)[C@H]3CC[C@@H]31)c1n2[C@@H](C(=O)Nc2ccc(C(F)(F)F)cc2Cl)C[C@H]1C (single isomer, unassigned) [Compound I-8]
